Data as given in US20160296529A1, “AMINOTRIAZOLOPYRIDINE FOR USE IN THE TREATMENT OF INFLAMMATION, AND PHARMACEUTICAL COMPOSITIONS THEREOF” (priority 2012, published 2016).

Legend:
[1] = Single dose pharmacokinetics in animals, mouse; type: in vivo, CD1 mice; details: male, CD1, plasma, after Formula II 30 mg/kg oral, read-out: exposure (expressed as AUC)
Description: (§1) Pharmacokinetic studies were performed in various animal species dosed with the compound according to Formula II to determine the exposure to the compound according to Formula I as well as its apparent terminal half life (T1/2), when possible.
(§2) Sprague-Dawley rats (male, 200-250 g), CD1 mice (male, 25-30 g), Beagle dogs (male, 9-10 kg), Göttingen minipigs (male, 10-15 kg) and New Zealand White rabbits (male, 3-5 kg) were acclimatized for at least 7 days before treatment and were kept on a 12 hr light/dark cycle (07 h00-19 h00).
(§3) Temperature was maintained at approximately 22° C., and food and water were provided ad libitum.
(§4) The compound according to Formula II was formulated in 0.5% methylcellulose and dosed orally to 3 animals (or 3 mouse/time points) as a single esophageal gavage at dose ranging from 15 to 45 mg/kg under a dosing volume of 5 or 10 mL/kg.
(§5) Blood samples were collected over a 24-h period via the jugular vein (dog, minipig), ear blood vessel (rabbit), cardiac puncture (mouse) or retro-orbital sinus (rat) with lithium heparin as anti-coagulant. Whole blood samples were centrifuged and the resulting plasma samples were stored at −20° C. pending analysis.
(§6) Plasma concentrations of the compound according to Formula I and of the compound according to Formula II were determined by an LC-MS/MS method with a limit of quantification ≦10.0 ng/mL for both Formula I and Formula II for all species.
(§7) Pharmacokinetic parameters were calculated using a statistical analysis package (WinNonLin (Pharsight, Sunnyvale, Calif.: CA 94086, USA).

hepatocytes of dog = assay: In vitro metabolism study in hepatocytes, dog; type: in vitro ADME; details: dog hepatocyte suspension, 24 h incubation of 100 μM [14C]-Formula II
Description: (§8) Hepatocyte stability (Concentrations of the compound according to Formula II and its main metabolites (as % of total radioactivity) after 24 h incubation of 100 μM [^14C]-Compound according to Formula II in hepatocyte suspension of different species)

hepatocytes of rat = assay: In vitro metabolism study in hepatocytes, rat; type: in vitro ADME; details: rat hepatocyte suspension, 24 h incubation of 100 μM [14C]-Formula II
Description: as §8

[2] = Single dose pharmacokinetics in animals, minipig; type: in vivo, Göttingen minipigs; details: male, Göttingen, plasma, after Formula II 30 mg/kg oral, read-out: exposure (expressed as AUC)
Description: as §1, §2, §3, §4, §5, §6, §7

hepatocytes of human = assay: In vitro metabolism study in hepatocytes, human; type: in vitro ADME; details: human hepatocyte suspension, 24 h incubation of 100 μM [14C]-Formula II
Description: as §8

rat CIA model = assay: CIA model 2 (rat collagen induced arthritis, ankle diameter); type: in vivo, Female Lewis rats
Excerpt: Female Lewis rats (n=76) that weighed 165-194 grams (mean approx. 178 g) on arthritis day 0 were obtained from Charles River Laboratories, Inc., Wilmington, Mass., (ref#393739). Animals were identified by a distinct number at the base of the tail delineating group and animal number.
Upon arrival, animals were housed 4/cage in shoe-box polycarbonate cages and acclimated for 8 days prior to being immunized with type II collagen. No concurrent medications were given.
During the acclimation and study periods, animals were housed in a laboratory environment with temperatures ranging 19-25° […]. and relative humidity of 30%-70%. Automatic timers provided 12 h of light and 12 h of dark. Animals were allowed access ad libitum to food and water.
Acclimated female Lewis rats were anesthetized with Isoflurane and receive subcutaneous/intradermal (SC/ID) injections with 300 μL of Freund's Incomplete Adjuvant (Difco, Detroit, Mich.) containing 2 mg/mL bovine type II collagen (Elastin Products, Owensville, Mo.) at the base of the tail and 2 sites on the back on day −9 and on day −3.
Collagen was prepared by making a 4 mg/mL solution in 0.01N Acetic acid. Equal volumes of collagen and Freund's incomplete adjuvant, were emulsified by hand mixing until a bead of this material holds its form when placed in water. Each animal received 300 μL of the mixture on each occasion divided over 3 subcutaneous sites on back.
On study day 1, onset of arthritis occurred and animals were randomized into treatment groups. After randomization, all cages were labelled with protocol number, group number, and animal numbers. Randomization into each group was done after ankle joint swelling was obviously established and there was good evidence of bilateral disease.
Animals with established type II collagen arthritis were treated daily (QD) by the oral (PO) route for 13 days with vehicle (methylcellulose 0.5% (w/v)), or with active compound(s) prepared in methylcellulose, 0.5% (w/v). Oral dosing was initiated on arthritis day 1 and continued daily (QD at 24 h intervals) through day 13. Animals were terminated on arthritis day 14.
The severity of the arthritis was evaluated by measuring the diameter of both ankles on the animals. Caliper measurements of ankles were taken every day beginning on day 0, with a Digitrix II micrometer (Fowler & NSK). Baseline measurements were taken using one ankle with values rounded to one-thousandth of an inch. Measurements were confirmed as clinically normal (0.260-0.264 in) by comparison with historical values for rats based on a range of body weights. Baseline measurements were then applied to both ankles, and these values remain with the animal so long as the ankle was clinically normal with good definition of all the ankle bones and no evidence of inflammation. Animals were terminated on day 14.

O=C(Nc1nc2cccc(-c3ccc(CN4CCS(=O)(=O)CC4)cc3)n2n1)C1CC1 [Formula II, Cyclopropanecarboxylic acid {5-[4-(1,1-dioxo-thiomorpholin-4-ylmethyl)-phenyl]-[1,2,4]triazolo[1,5-a]pyridin-2-yl}-amide]
AUC [1]: 7300 ng·h/mL | In vitro metabolic profile of Formula II (as % of total radioactivity) (hepatocytes of dog): at least 80% | In vitro metabolic profile of Formula II (as % of total radioactivity) (hepatocytes of dog; listed as drawing 10): 93% | In vitro metabolic profile of Formula II (as % of total radioactivity) (hepatocytes of rat): at least 80% | In vitro metabolic profile of Formula II (as % of total radioactivity) (hepatocytes of rat; listed as drawing 10): 86% | AUC [2]: 19100 ng·h/mL | In vitro metabolic profile of Formula II (as % of total radioactivity) (hepatocytes of human): at least 80% | In vitro metabolic profile of Formula II (as % of total radioactivity) (hepatocytes of human; listed as drawing 10): 88% | ankle diameter (rat CIA model; group C: Formula II 1 mg/kg PO QD, day 0): 0.2625 inches | ankle diameter (rat CIA model; group C: Formula II 1 mg/kg PO QD, day 1): 0.2716 inches | ankle diameter (rat CIA model; group C: Formula II 1 mg/kg PO QD, day 2): 0.2755 inches | ankle diameter (rat CIA model; group C: Formula II 1 mg/kg PO QD, day 3): 0.2869 inches | ankle diameter (rat CIA model; group C: Formula II 1 mg/kg PO QD, day 4): 0.2990 inches | ankle diameter (rat CIA model; group C: Formula II 1 mg/kg PO QD, day 5): 0.3106 inches | ankle diameter (rat CIA model; group C: Formula II 1 mg/kg PO QD, day 6): 0.3231 inches | ankle diameter (rat CIA model; group C: Formula II 1 mg/kg PO QD, day 7): 0.3296 inches | ankle diameter (rat CIA model; group C: Formula II 1 mg/kg PO QD, day 8): 0.3291 inches | ankle diameter (rat CIA model; group C: Formula II 1 mg/kg PO QD, day 9): 0.3268 inches | ankle diameter (rat CIA model; group C: Formula II 1 mg/kg PO QD, day 10): 0.3270 inches | ankle diameter (rat CIA model; group C: Formula II 1 mg/kg PO QD, day 11): 0.3185 inches | ankle diameter (rat CIA model; group C: Formula II 1 mg/kg PO QD, day 12): 0.3178 inches | ankle diameter (rat CIA model; group C: Formula II 1 mg/kg PO QD, day 13): 0.3185 inches | ankle diameter (rat CIA model; group C: Formula II 1 mg/kg PO QD, day 14): 0.3226 inches | ankle diameter (rat CIA model; group D: Formula II 3 mg/kg PO QD, day 0): 0.2623 inches | ankle diameter (rat CIA model; group D: Formula II 3 mg/kg PO QD, day 1): 0.2718 inches | ankle diameter (rat CIA model; group D: Formula II 3 mg/kg PO QD, day 2): 0.2755 inches | ankle diameter (rat CIA model; group D: Formula II 3 mg/kg PO QD, day 3): 0.2869 inches | ankle diameter (rat CIA model; group D: Formula II 3 mg/kg PO QD, day 4): 0.2957 inches | ankle diameter (rat CIA model; group D: Formula II 3 mg/kg PO QD, day 5): 0.3058 inches | ankle diameter (rat CIA model; group D: Formula II 3 mg/kg PO QD, day 6): 0.3168 inches | ankle diameter (rat CIA model; group D: Formula II 3 mg/kg PO QD, day 7): 0.3205 inches | ankle diameter (rat CIA model; group D: Formula II 3 mg/kg PO QD, day 8): 0.3259 inches | ankle diameter (rat CIA model; group D: Formula II 3 mg/kg PO QD, day 9): 0.3216 inches | ankle diameter (rat CIA model; group D: Formula II 3 mg/kg PO QD, day 10): 0.3197 inches | ankle diameter (rat CIA model; group D: Formula II 3 mg/kg PO QD, day 11): 0.3156 inches | ankle diameter (rat CIA model; group D: Formula II 3 mg/kg PO QD, day 12): 0.3165 inches | ankle diameter (rat CIA model; group D: Formula II 3 mg/kg PO QD, day 13): 0.3175 inches | ankle diameter (rat CIA model; group D: Formula II 3 mg/kg PO QD, day 14): 0.3174 inches | significance to vehicle control (ANOVA) in the CIA second model (rat CIA model; group E: Formula II 10 mg/kg PO QD): mg/kg (*) (((*) = p ≦ 0.05 ANOVA to vehicle control)) | ankle diameter (rat CIA model; group E: Formula II 10 mg/kg PO QD, day 0): 0.2626 inches | ankle diameter (rat CIA model; group E: Formula II 10 mg/kg PO QD, day 1): 0.2718 inches | ankle diameter (rat CIA model; group E: Formula II 10 mg/kg PO QD, day 2): 0.2744 inches | ankle diameter (rat CIA model; group E: Formula II 10 mg/kg PO QD, day 3): 0.2808 inches | ankle diameter (rat CIA model; group E: Formula II 10 mg/kg PO QD, day 4): 0.2850 inches | ankle diameter (rat CIA model; group E: Formula II 10 mg/kg PO QD, day 5): 0.2921 inches | ankle diameter (rat CIA model; group E: Formula II 10 mg/kg PO QD, day 6): 0.3000 inches | ankle diameter (rat CIA model; group E: Formula II 10 mg/kg PO QD, day 7): 0.3031 inches | ankle diameter (rat CIA model; group E: Formula II 10 mg/kg PO QD, day 8): 0.3108 inches | ankle diameter (rat CIA model; group E: Formula II 10 mg/kg PO QD, day 9): 0.3119 inches | ankle diameter (rat CIA model; group E: Formula II 10 mg/kg PO QD, day 10): 0.3122 inches | ankle diameter (rat CIA model; group E: Formula II 10 mg/kg PO QD, day 11): 0.3090 inches | ankle diameter (rat CIA model; group E: Formula II 10 mg/kg PO QD, day 12): 0.3070 inches | ankle diameter (rat CIA model; group E: Formula II 10 mg/kg PO QD, day 13): 0.3069 inches | ankle diameter (rat CIA model; group E: Formula II 10 mg/kg PO QD, day 14): 0.3066 inches | significance to vehicle control (ANOVA) in the CIA second model (rat CIA model; group F: Formula II 30 mg/kg PO QD): mg/kg (*) (((*) = p ≦ 0.05 ANOVA to vehicle control)) | ankle diameter (rat CIA model; group F: Formula II 30 mg/kg PO QD, day 0): 0.2620 inches | ankle diameter (rat CIA model; group F: Formula II 30 mg/kg PO QD, day 1): 0.2718 inches | ankle diameter (rat CIA model; group F: Formula II 30 mg/kg PO QD, day 2): 0.2679 inches | ankle diameter (rat CIA model; group F: Formula II 30 mg/kg PO QD, day 3): 0.2683 inches | ankle diameter (rat CIA model; group F: Formula II 30 mg/kg PO QD, day 4): 0.2708 inches | ankle diameter (rat CIA model; group F: Formula II 30 mg/kg PO QD, day 5): 0.2698 inches | ankle diameter (rat CIA model; group F: Formula II 30 mg/kg PO QD, day 6): 0.2696 inches | ankle diameter (rat CIA model; group F: Formula II 30 mg/kg PO QD, day 7): 0.2706 inches | ankle diameter (rat CIA model; group F: Formula II 30 mg/kg PO QD, day 8): 0.2741 inches | ankle diameter (rat CIA model; group F: Formula II 30 mg/kg PO QD, day 9): 0.2721 inches | ankle diameter (rat CIA model; group F: Formula II 30 mg/kg PO QD, day 10): 0.2706 inches | ankle diameter (rat CIA model; group F: Formula II 30 mg/kg PO QD, day 11): 0.2711 inches | ankle diameter (rat CIA model; group F: Formula II 30 mg/kg PO QD, day 12): 0.2685 inches | ankle diameter (rat CIA model; group F: Formula II 30 mg/kg PO QD, day 13): 0.2684 inches | ankle diameter (rat CIA model; group F: Formula II 30 mg/kg PO QD, day 14): 0.2679 inches
